# Laboratory results reported in patent US10774071B2, “PD-1/PD-L1 inhibitors” (Gilead Sciences, Inc., priority 2018, dated 2020).
# Like-named read-outs stand apart in the source and are kept apart here.
# Tests used:
# PD-1/PD-L1 = PD-1/PD-L1 (Homo sapiens (Human), UniProt Q9NZQ7); test: PD-1/PD-L1 biochemical protein-protein interaction assay (ALPHA); format: binding; details: read-out: IC50 PD-L1-PD1
# PD-L1 = PD-L1 (Homo sapiens (Human), UniProt Q9NZQ7); test: PD-L1/PD-L1 dimerization biochemical protein-protein interaction assay (ALPHA); format: binding; details: read-out: AC50 PDL1 Dimer 1 nM
# Chain of PD-L1 (Q9NZQ7 19-238): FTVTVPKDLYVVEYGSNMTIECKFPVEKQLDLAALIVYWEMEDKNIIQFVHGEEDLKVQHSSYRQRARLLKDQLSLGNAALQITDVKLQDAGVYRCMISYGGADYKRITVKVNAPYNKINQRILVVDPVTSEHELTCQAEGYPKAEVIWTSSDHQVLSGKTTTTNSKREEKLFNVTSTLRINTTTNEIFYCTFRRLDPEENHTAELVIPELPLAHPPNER
# Chain of PD-L1 (Q9NZQ7 19-238): as above
# [1] = 0.3 nM His tagged PD-L1, 2.5 nM biotinylated Fc-PD-1, readings of 0.064 nM are equal to or less than 0.064 nM
# [2] = 0.5 nM His tagged PD-L1 and 0.5 nM FLAG tagged PD-L1, Table 4A
# [3] = 0.3 nM His tagged PD-L1, 2.5 nM biotinylated Fc-PD-1, Table 3B
# [4] = 0.5 nM His tagged PD-L1 and 0.5 nM FLAG tagged PD-L1, Table 4B
# Chain of PD-1/PD-L1 (Q9NZQ7 19-238): as above
Structure (SMILES),IC50 (PD-1/PD-L1; [1]) [nM],AC50 (PD-L1; [2]) [nM],IC50 (PD-1/PD-L1; [3]) [nM],AC50 (PD-L1; [4]) [nM]
COc1nc(-c2cccc(-c3cccc4c3CC[C@@H]4Nc3nc(OC)c(CN[C@@H](C)C(=O)O)nc3C(F)(F)F)c2Cl)ccc1CN[C@H]1C[C@](C)(O)C1 [A-50],≤ 0.064,17.6,–,–
COc1nc(-c2cccc(-c3cccc4c3CC[C@@H]4Nc3nc(OC)c(CN[C@@H](C)C(=O)O)cc3C(F)(F)F)c2Cl)ccc1CN[C@H]1C[C@](C)(O)C1 [A-66],≤ 0.064,19.6,–,–
COc1nc(-c2cccc(-c3cccc4c3CC[C@@H]4Oc3nc(OC)c(CN4CC[C@@H](C(=O)N=S(C)(N)=O)C4)cc3Cl)c2Cl)ccc1CNC[C@@H]1CCC(=O)N1 (stereo partly shown) [B-164],–,–,0.27,66.9
COc1nc(-c2cccc(-c3cccc4c3CC[C@@H]4Nc3nc(OC)c(CN[C@@H](C)C(=O)O)cc3C(F)(F)F)c2Cl)ccc1CNC[C@H]1C[C@](C)(O)C1 [A-83],≤ 0.064,23.6,–,–
COc1nc(-c2cccc(-c3cccc4c3CC[C@@H]4Nc3nc(OC)c(CN4CC5(C(=O)O)CCC4CC5)nc3C(F)(F)F)c2Cl)ccc1CNC[C@H]1CCC(=O)N1 [A-62],≤ 0.064,45.4,–,–
COc1nc(-c2cccc(-c3cccc4c3CC[C@@H]4Oc3nc(OC)c(CN4CC[C@@H](C(=O)O)C4)nc3C)c2Cl)ccc1CNC[C@@H]1CCC(=O)N1 [B-150],–,–,0.064,65.1
COc1nc(-c2cccc(-c3cccc4c3CC[C@@H]4Oc3nc(OC)c(CN4CC[C@@H](C(=O)N=S(C)(=O)NC(C)=O)C4)cc3Cl)c2Cl)ccc1CNC[C@@H]1CCC(=O)N1 (stereo partly shown) [B-163],–,–,0.064,39.1
COc1nc(-c2cccc(-c3cccc4c3CC[C@@H]4Oc3nc(OC)c(CN4CC[C@@H](C(=O)N=S(C)(=O)N(CC(F)(F)F)CC(F)(F)F)C4)cc3Cl)c2Cl)ccc1CNC[C@@H]1CCC(=O)N1 (stereo partly shown) [B-160],–,–,0.54,309
COc1nc(-c2cccc(-c3cccc4c3CC[C@@H]4Oc3nc(OC)c(CNCC(C)(C)C(=O)O)cc3C(F)(F)F)c2Cl)ccc1CN[C@H]1C[C@](C)(O)C1 [B-252],–,–,0.064,18
COc1nc(-c2cccc(-c3cccc4c3CC[C@@H]4Nc3nc(OC)c(CNC4(C(=O)O)CC4)nc3C(F)(F)F)c2Cl)ccc1CNC[C@H]1C[C@](C)(O)C1 [A-85],≤ 0.064,42.5,–,–
COc1nc(-c2cccc(-c3cccc4c3CC[C@@H]4Nc3nc(OC)c(CN4CC5(C(=O)O)CCC4CC5)nc3C(F)(F)F)c2Cl)ccc1CNC[C@@H]1CC(O)C(=O)N1 (stereo partly shown) [A-47],≤ 0.064,22.3,–,–
COc1nc(O[C@H]2CCc3c(-c4cccc(-c5ccc(CNC[C@@H]6CCC(=O)N6)c(OC)c5F)c4Cl)cccc32)c(Cl)cc1CN1CC[C@@H](C(=O)O)C1 [B-143],–,–,0.064,42.1
COc1nc(-c2cccc(-c3cccc4c3CC[C@@H]4Oc3nc(OC)c(CN4CC[C@@H](C(=O)N=S(C)(=O)NCC(F)(F)F)C4)cc3Cl)c2Cl)ccc1CNC[C@@H]1CCC(=O)N1 (stereo partly shown) [B-161],–,–,0.073,41.2
CNc1nc(-c2cccc(-c3cccc4c3CC[C@@H]4Oc3nc(OC)c(CN4CC[C@@H](C(=O)O)C4)cc3Cl)c2Cl)cnc1CN1CC(C)(O)C1 [B-21],–,–,0.064,31.2
COc1nc(-c2cccc(-c3cccc4c3CC[C@@H]4Oc3nc(OC)c(CN4C5CCC4(C(=O)O)CC5)cc3C(F)(F)F)c2Cl)ccc1CNC[C@@H]1CCC(=O)N1 [B-232],–,–,0.064,1.79
COc1nc(O[C@H]2CCc3c(-c4cccc(-c5cc(C)c(CNC[C@@H]6CCC(=O)N6)c(OC)n5)c4Cl)cccc32)c(C)cc1CNC(C)(C)C(=O)O [B-243],–,–,0.064,15.8
COc1cc(N[C@H]2CCc3c(-c4cccc(-c5ccc(CNC[C@@H]6CCC(=O)N6)c(OC)n5)c4Cl)cccc32)c(C(F)(F)F)nc1CN1CC[C@@](C)(C(=O)O)C1 [A-42],≤ 0.064,12.6,–,–
COc1nc(O[C@H]2CCc3c(-c4cccc(-c5cc(F)c(CNC[C@@H]6CCC(=O)N6)c(OC)n5)c4Cl)cccc32)c(Cl)cc1CN1CC(C(=O)O)C1 [B-142],–,–,0.064,38.9
COc1nc(-c2cccc(-c3cccc4c3CC[C@@H]4Nc3nc(OC)c(CNCC(=O)O)cc3C(F)(F)F)c2Cl)ccc1CN[C@H]1C[C@](C)(O)C1 [A-67],≤ 0.064,32.9,–,–
COc1nc(-c2cccc(-c3cccc4c3CC[C@@H]4Nc3nc(OC)c(CN4C[C@H](C)C[C@H]4C(=O)O)nc3C(F)(F)F)c2Cl)ccc1CNC[C@@H]1CCC(=O)N1 [A-76],≤ 0.064,30.2,–,–
COc1nc(-c2cccc(-c3cccc4c3CC[C@@H]4Nc3nc(OC)c(CN[C@@H](C)C(N)=O)nc3C(F)(F)F)c2Cl)ccc1CNC[C@@H]1CCC(=O)N1 [A-102],≤ 0.064,43.1,–,–
COc1nc(-c2cccc(-c3cccc4c3CC[C@@H]4Oc3nc(OC)c(CNCC4(C(=O)O)CC4)cc3C(F)(F)F)c2Cl)ccc1CN[C@H]1C[C@](C)(O)C1 [B-251],–,–,0.064,17.7
COc1nc(O[C@H]2CCc3c(-c4cccc(-c5cc(C)c(CN6C[C@@H]7C[C@]7(C(=O)O)C6)c(OC)n5)c4Cl)cccc32)c(Cl)cc1CNC[C@@H]1CCC(=O)N1 [B-132],–,–,0.266,301
COc1nc(-c2cccc(-c3cccc4c3CC[C@@H]4Oc3nc(OC)c(CNC4(C(=O)O)CC4)cc3C(F)(F)F)c2Cl)ccc1CN1CC2(C1)CN(C(C)=O)C2 [B-168],–,–,0.064,11.8
COc1nc(-c2cccc(-c3cccc4c3CC[C@@H]4Oc3nc(OC)c(CN4CC[C@@H](C(=O)O)C4)cc3Cl)c2C#N)ccc1CNC[C@@H]1CCC(=O)N1 [B-73],–,–,0.064,81.7
COc1nc(-c2cccc(-c3cccc4c3CC[C@@H]4Oc3nc(OC)c(CN4C[C@@H]5CCC[C@]5(C(=O)O)C4)cc3Cl)c2Cl)ccc1CN1CC(C)(O)C1 [B-83],–,–,0.064,211
COc1cc(N[C@H]2CCc3c(-c4cccc(-c5ccc(CNC[C@@H]6CCC(=O)N6)c(OC)n5)c4Cl)cccc32)c(C(F)(F)F)nc1CN1CC[C@@H](C(=O)O)C1 [A-43],≤ 0.064,9.89,–,–
COc1nc(-c2cccc(-c3cccc4c3CC[C@@H]4Nc3nc(OC)c(CN4CC(C(=O)O)C4)cc3C(F)(F)F)c2Cl)ccc1CN1CC(C)(O)C1 [A-54],≤ 0.064,76.6,–,–
COc1nc(O[C@H]2CCc3c(-c4cccc(-c5cc(C)c(CN6CC(C)(O)C6)c(OC)n5)c4Cl)cccc32)c(Cl)cc1CN1CC[C@@H](C(=O)O)C1 [B-58],–,–,0.064,49.7

# Next, values leading:
IC50 (PD-1/PD-L1; [1]) [nM],AC50 (PD-L1; [2]) [nM],IC50 (PD-1/PD-L1; [3]) [nM],AC50 (PD-L1; [4]) [nM],Structure (SMILES)
≤ 0.064,14.7,–,–,COc1nc(-c2cccc(-c3cccc4c3CC[C@@H]4Nc3nc(OC)c(CNCC(=O)O)cc3C(F)(F)F)c2Cl)ccc1CNC[C@@H]1CCC(=O)N1 [A-65]
–,–,0.064,41.3,COc1nc(-c2cccc(-c3cccc4c3CC[C@@H]4Oc3nc(OC)c(CN4C[C@H](C(=O)O)[C@@H](C)C4)cc3Cl)c2Cl)ccc1CNC[C@@H]1CCC(=O)N1 [B-106]
–,–,0.064,2.04,COc1cc(O[C@H]2CCc3c(-c4cccc(-c5ccc(CNC[C@@H]6CCC(=O)N6)c(OC)n5)c4Cl)cccc32)c(C(F)(F)F)cc1CNC1(C(=O)O)CC1 [B-220]
–,–,0.064,5.83,COc1cc(-c2cccc(-c3cccc4c3CC[C@@H]4Oc3nc(OC)c(CN4CC(C)(C(=O)O)C4)cc3C(F)(F)F)c2Cl)ccc1CNC[C@@H]1CCC(=O)N1 [B-141]
–,–,0.064,36.2,COc1nc(-c2cccc(-c3cccc4c3CC[C@@H]4Oc3nc(OC)c(CN4C[C@@H]5C[C@]5(C(=O)O)C4)cc3Cl)c2Cl)ccc1CNC[C@@H]1CCC(=O)N1 [B-95]
–,–,0.064,7.55,COc1nc(-c2cccc(-c3cccc4c3CC[C@@H]4Oc3nc(OC)c(CNCC(=O)O)cc3C(F)(F)F)c2Cl)ccc1CN[C@]1(C)C[C@@](C)(O)C1 [B-205]
–,–,0.064,25.1,COc1nc(-c2cccc(-c3cccc4c3CC[C@@H]4Oc3nc(OC)c(CN4CCC(C)(C)[C@H]4C(=O)O)cc3Cl)c2Cl)ccc1CNC[C@@H]1CCC(=O)N1 [B-183]
–,–,0.064,18.2,COc1nc(-c2cccc(-c3cccc4c3CC[C@@H]4Oc3nc(OC)c(C(C)NCCC(=O)O)cc3C(F)(F)F)c2Cl)ccc1CNC[C@@H]1CCC(=O)N1 (stereo partly shown) [B-120]
–,–,0.064,4.76,COc1nc(-c2cccc(-c3cccc4c3CC[C@@H]4Oc3nc(OC)c(CN[C@H](C(=O)O)C(C)C)cc3C(F)(F)F)c2Cl)ccc1CNC[C@@H]1CCC(=O)N1 [B-270]
–,–,0.064,2.42,CC[C@@](C)(NCc1cc(C(F)(F)F)c(O[C@H]2CCc3c(-c4cccc(-c5ccc(CNC[C@@H]6CCC(=O)N6)c(OC)n5)c4Cl)cccc32)nc1OC)C(=O)O [B-235]
–,–,0.064,18,COc1cc(O[C@H]2CCc3c(-c4cccc(-c5ccc(CNC[C@@H]6CCC(=O)N6)c(OC)n5)c4Cl)cccc32)c(C(F)(F)F)cc1CN1CCC[C@@]1(C)C(=O)O [B-223]
–,–,0.064,24.5,COc1nc(-c2cccc(-c3cccc4c3CC[C@@H]4Oc3nc(OC)c(C(C)N4CC(C(=O)O)C4)cc3C(F)(F)F)c2Cl)ccc1CNC[C@@H]1CCC(=O)N1 (stereo partly shown) [B-119]
–,–,0.064,12.1,COc1nc(-c2cccc(-c3cccc4c3CC[C@@H]4Oc3nc(OC)c(CNC(C)(CO)C(=O)O)cc3C)c2Cl)ccc1CNC[C@@H]1CCC(=O)N1 (stereo partly shown) [B-240]
–,–,0.064,5.9,COc1nc(-c2cccc(-c3cccc4c3CC[C@@H]4Oc3nc(OC)c(CN(C)CC(=O)O)cc3C(F)(F)F)c2Cl)ccc1CNC[C@@H]1CCC(=O)N1 [B-258]
–,–,0.064,8.73,COc1nc(-c2cccc(-c3cccc4c3CC[C@@H]4Oc3nc(OC)c(CN[C@H](C)CC(=O)O)cc3C(F)(F)F)c2Cl)ccc1CN[C@H]1C[C@](C)(O)C1 [B-253]
